Key:
Format in all cases: in vivo
Botrytis cinerea = assay: Test E: tomato Botrytis, preventive spray on tomato seedlings; settings: 100 = 100% disease control, 0 = no control; for pest or weed control at 50 ppm: Botrytis cinerea, read-out: Test E disease control rating
Text: (§1) General protocol for preparing test suspensions for Tests A-F: the test compounds were first dissolved in acetone in an amount equal to 3% of the final volume and then suspended at the desired concentration (in ppm) in acetone and purified water (50/50 mix by volume) containing 250 ppm of the surfactant PEG400 (polyhydric alcohol esters). The resulting test suspensions were then used in Tests A-F.
(§2) The test suspension was sprayed to the point of run-off on tomato seedlings. The following day the seedlings were inoculated with a spore suspension of Botrytis cinerea (the causal agent of tomato Botrytis) and incubated in a saturated atmosphere at 20° C. for 48 h, and then moved to a growth chamber at 24° C. for 3 days, after which time visual disease ratings were made.
(§3) A rating of 100 indicates 100% disease control and a rating of 0 indicates no disease control (relative to the controls). A dash (-) indicates the compound was not tested.

[1] = test system: Blumeria graminis f. sp. tritici; assay: Test C: wheat powdery mildew, preventive spray on wheat seedlings; settings: 100 = 100% disease control, 0 = no control; for pest or weed control at 50 ppm: Blumeria graminis, read-out: Test C disease control rating
Text: as §1
The test suspension was sprayed to the point of run-off on wheat seedlings. The following day the seedlings were inoculated with a spore dust of Blumeria graminis f. sp. tritici, (also known as Eysiphe graminis f. sp. tritici, the causal agent of wheat powdery mildew) and incubated in a growth chamber at 20° C. for 8 days, after which time visual disease ratings were made.
as §3

[2] = test system: Puccinia recondita f. sp. tritici; assay: Test B: wheat leaf rust, preventive spray on wheat seedlings; settings: 100 = 100% disease control, 0 = no control; for pest or weed control at 50 ppm: Puccinia recondita, read-out: Test B disease control rating
Text: as §1
(§4) The test solution was sprayed to the point of run-off on wheat seedlings. The following day the seedlings were inoculated with a spore suspension of Puccinia recondita f. sp. tritici (the causal agent of wheat leaf rust) and incubated in a saturated atmosphere at 20° C. for 24 h, and then moved to a growth chamber at 20° C. for 7 days, after which time visual disease ratings were made.
as §3

Phakopsora pachyrhizi = assay: Test D: Asian soybean rust, preventive spray on soybean seedlings; settings: 100 = 100% disease control, 0 = no control; for pest or weed control at 50 ppm: Phakopsora pachyrhizi, 216 h, read-out: Test D disease control rating
Text: as §1
as §4, with “soybean” for “wheat”, “Phakopsora pachyrhizi” for “Puccinia recondita f. sp. tritici”, “Asian soybean” for “wheat leaf”, “22°” for “20°”, “h” for “h,”, “8” for “7”
as §3

Alternaria solani = assay: Test F: tomato early blight, preventive spray on tomato seedlings; settings: 100 = 100% disease control, 0 = no control; for pest or weed control at 50 ppm: Alternaria solani, read-out: Test F disease control rating
Text: as §1
as §2, with “Alternaria solani” for “Botrytis cinerea”, “early blight)” for “Botrytis)”, “27°” for “20°”, “20°” for “24°”
as §3

Zymoseptoria tritici = assay: Test A: wheat leaf blotch, preventive spray on wheat seedlings; settings: 100 = 100% disease control, 0 = no control; for pest or weed control at 50 ppm: Zymoseptoria tritici, read-out: Test A disease control rating
Text: as §1
The test solution was sprayed to the point of run-off on wheat seedlings. The following day the seedlings were inoculated with a spore suspension of Zymoseptoria tritici (the causal agent of wheat leaf blotch) and incubated in a saturated atmosphere at 24° C. for 48 h, and then moved to a growth chamber at 20° C. for 17 days, after which time disease ratings were made.
as §3

Cn1cc(-c2cc(F)ccc2F)c(-c2ccc(F)cc2Cl)c(Cl)c1=O [Compound 24]
Test E disease control rating (Botrytis cinerea; 50 ppm): 85%
Test C disease control rating ([1]; 50 ppm): 0%
Test B disease control rating ([2]; 50 ppm): 96%
Test D disease control rating (Phakopsora pachyrhizi; 50 ppm): 0%
Test F disease control rating (Alternaria solani; 50 ppm): 0%
Test A disease control rating (Zymoseptoria tritici; 50 ppm): 96%

COc1cc(OC)cc(-c2cn(C)c(=O)c(Cl)c2-c2ccc(F)cc2F)c1 [Compound 25]
Test E disease control rating (Botrytis cinerea; 50 ppm): 82%
Test C disease control rating ([1]; 50 ppm): 0%
Test B disease control rating ([2]; 50 ppm): 100%
Test D disease control rating (Phakopsora pachyrhizi; 50 ppm): 84%
Test F disease control rating (Alternaria solani; 50 ppm): 99%
Test A disease control rating (Zymoseptoria tritici; 50 ppm): 100%

Cn1cc(-c2cc(F)c(F)cc2F)c(-c2ccc(F)cc2Cl)c(Cl)c1=O [Compound 26]
Test E disease control rating (Botrytis cinerea; 50 ppm): 83%
Test C disease control rating ([1]; 50 ppm): 0%
Test B disease control rating ([2]; 50 ppm): 86%
Test D disease control rating (Phakopsora pachyrhizi; 50 ppm): 0%
Test F disease control rating (Alternaria solani; 50 ppm): 0%
Test A disease control rating (Zymoseptoria tritici; 50 ppm): 99%

Cn1cc(-c2ccccc2C(F)(F)F)c(-c2ccc(F)cc2Cl)c(Cl)c1=O [Compound 27]
Test E disease control rating (Botrytis cinerea; 50 ppm): 58%
Test C disease control rating ([1]; 50 ppm): 0%
Test B disease control rating ([2]; 50 ppm): 100%
Test D disease control rating (Phakopsora pachyrhizi; 50 ppm): 25%
Test F disease control rating (Alternaria solani; 50 ppm): 0%
Test A disease control rating (Zymoseptoria tritici; 50 ppm): 98%

COc1ccc(F)c(-c2cn(C)c(=O)c(Cl)c2-c2ccc(F)cc2Cl)c1 [Compound 28]
Test E disease control rating (Botrytis cinerea; 50 ppm): 98%
Test C disease control rating ([1]; 50 ppm): 97%
Test B disease control rating ([2]; 50 ppm): 100%
Test D disease control rating (Phakopsora pachyrhizi; 50 ppm): 87%
Test F disease control rating (Alternaria solani; 50 ppm): 99%
Test A disease control rating (Zymoseptoria tritici; 50 ppm): 100%

COc1ccc(Cl)c(-c2cn(C)c(=O)cc2-c2ccc(F)cc2Cl)c1 [Compound 31]
Test E disease control rating (Botrytis cinerea; 50 ppm): 99%
Test C disease control rating ([1]; 50 ppm): 0%
Test B disease control rating ([2]; 50 ppm): 96%
Test D disease control rating (Phakopsora pachyrhizi; 50 ppm): 0%
Test F disease control rating (Alternaria solani; 50 ppm): 0%
Test A disease control rating (Zymoseptoria tritici; 50 ppm): 96%

COc1ccc(Cl)c(-c2cn(C)c(=O)c(Cl)c2-c2ccc(F)cc2Cl)c1 [Compound 32, 3-chloro-4-(2-chloro-4-fluorophenyl)-5-(2-chloro-5-methoxyphenyl)-1-methyl-2(1H)-pyridinone]
pest or weed control at 50 ppm (Botrytis cinerea; 50 ppm): 100%
pest or weed control at 50 ppm ([1]; 50 ppm): 99%
pest or weed control at 50 ppm ([2]; 50 ppm): 100%
pest or weed control at 50 ppm (Phakopsora pachyrhizi; 50 ppm): 99%
pest or weed control at 50 ppm (Alternaria solani; 50 ppm): 100%
pest or weed control at 50 ppm (Zymoseptoria tritici; 50 ppm): 100%

COc1ccc(Cl)c(-c2cn(C)c(=O)c(Br)c2-c2ccc(F)cc2Cl)c1 [Compound 33, 3-bromo-4-(2-chloro-4-fluorophenyl)-5-(2-chloro-5-methoxyphenyl)-1-methyl-2(1H)-pyridinone]
pest or weed control at 50 ppm (Botrytis cinerea; 50 ppm): 100%
pest or weed control at 50 ppm ([1]; 50 ppm): 99%
pest or weed control at 50 ppm ([2]; 50 ppm): 100%
pest or weed control at 50 ppm (Phakopsora pachyrhizi; 50 ppm): 89%
pest or weed control at 50 ppm (Alternaria solani; 50 ppm): 100%
pest or weed control at 50 ppm (Zymoseptoria tritici; 50 ppm): 100%

Cn1cc(-c2cc(F)ccc2Cl)c(-c2ccc(F)cc2Cl)cc1=O [Compound 34]
Test E disease control rating (Botrytis cinerea; 50 ppm): 98%
Test C disease control rating ([1]; 50 ppm): 48%
Test B disease control rating ([2]; 50 ppm): 68%
Test D disease control rating (Phakopsora pachyrhizi; 50 ppm): 59%
Test F disease control rating (Alternaria solani; 50 ppm): 0%
Test A disease control rating (Zymoseptoria tritici; 50 ppm): 100%

COc1cc(OC)c(Cl)c(-c2cn(OCC#N)c(=O)c(Cl)c2-c2ccc(F)cc2Cl)c1 [Compound 35]
Test E disease control rating (Botrytis cinerea; 50 ppm): 94%
Test C disease control rating ([1]; 50 ppm): 73%
Test B disease control rating ([2]; 50 ppm): 100%
Test D disease control rating (Phakopsora pachyrhizi; 50 ppm): 92%
Test F disease control rating (Alternaria solani; 50 ppm): 0%
Test A disease control rating (Zymoseptoria tritici; 50 ppm): 84%

C#CCOn1cc(-c2cc(OC)cc(OC)c2Cl)c(-c2ccc(F)cc2Cl)c(Cl)c1=O [Compound 36, 3-chloro-5-(2-chloro-3,5-dimethoxyphenyl)-4-(2-chloro-4-fluorophenyl)-1-(2-propynyloxy)-2(1H)-pyridinone]
pest or weed control at 50 ppm (Botrytis cinerea; 50 ppm): 96%
pest or weed control at 50 ppm ([1]; 50 ppm): 0%
pest or weed control at 50 ppm ([2]; 50 ppm): 99%
pest or weed control at 50 ppm (Phakopsora pachyrhizi; 50 ppm): 96%
pest or weed control at 50 ppm (Alternaria solani; 50 ppm): 0%
pest or weed control at 50 ppm (Zymoseptoria tritici; 50 ppm): 98%

COc1cc(OC)c(Cl)c(-c2cn(OCC(F)F)c(=O)c(Cl)c2-c2ccc(F)cc2Cl)c1 [Compound 37]
Test E disease control rating (Botrytis cinerea; 50 ppm): 88%
Test C disease control rating ([1]; 50 ppm): 0%
Test B disease control rating ([2]; 50 ppm): 99%
Test D disease control rating (Phakopsora pachyrhizi; 50 ppm): 87%
Test F disease control rating (Alternaria solani; 50 ppm): 0%
Test A disease control rating (Zymoseptoria tritici; 50 ppm): 68%

COc1cc(OC)c(Cl)c(-c2cn(OC(F)F)c(=O)c(Cl)c2-c2ccc(F)cc2Cl)c1 [Compound 38, 3-chloro-5-(2-chloro-3,5-dimethoxyphenyl)-4-(2-chloro-4-fluorophenyl)-1-(difluoromethoxy)-2(1H)-pyridinone]
pest or weed control at 50 ppm (Botrytis cinerea; 50 ppm): 96%
pest or weed control at 50 ppm ([1]; 50 ppm): 73%
pest or weed control at 50 ppm ([2]; 50 ppm): 100%
pest or weed control at 50 ppm (Phakopsora pachyrhizi; 50 ppm): 75%
pest or weed control at 50 ppm (Alternaria solani; 50 ppm): 0%
pest or weed control at 50 ppm (Zymoseptoria tritici; 50 ppm): 96%

COc1cc(OC)c(Cl)c(-c2cn(O)c(=O)c(Cl)c2-c2ccc(F)cc2Cl)c1 [Compound 39, 3-chloro-5-(2-chloro-3,5-dimethoxyphenyl)-4-(2-chloro-4-fluorophenyl)-1-hydroxy-2(1H)-pyridinone]
pest or weed control at 50 ppm (Botrytis cinerea; 50 ppm): 56%
pest or weed control at 50 ppm ([1]; 50 ppm): 0%
pest or weed control at 50 ppm ([2]; 50 ppm): 86%
pest or weed control at 50 ppm (Phakopsora pachyrhizi; 50 ppm): 77%
pest or weed control at 50 ppm (Alternaria solani; 50 ppm): 0%
pest or weed control at 50 ppm (Zymoseptoria tritici; 50 ppm): 69%

Cn1cc(-c2cc(F)ccc2Cl)c(-c2ccc(F)cc2F)c(Cl)c1=O [Compound 40]
Test E disease control rating (Botrytis cinerea; 50 ppm): 94%
Test C disease control rating ([1]; 50 ppm): 98%
Test B disease control rating ([2]; 50 ppm): 100%
Test D disease control rating (Phakopsora pachyrhizi; 50 ppm): 92%
Test F disease control rating (Alternaria solani; 50 ppm): 99%
Test A disease control rating (Zymoseptoria tritici; 50 ppm): 100%

Cn1cc(-c2ccc(F)cc2F)c(-c2ccc(F)cc2F)c(Cl)c1=O [Compound 41]
Test E disease control rating (Botrytis cinerea; 50 ppm): 91%
Test C disease control rating ([1]; 50 ppm): 96%
Test B disease control rating ([2]; 50 ppm): 96%
Test D disease control rating (Phakopsora pachyrhizi; 50 ppm): 69%
Test F disease control rating (Alternaria solani; 50 ppm): 91%
Test A disease control rating (Zymoseptoria tritici; 50 ppm): 100%

Cn1cc(-c2ccc(F)cc2Cl)c(-c2ccc(F)cc2F)c(Cl)c1=O [Compound 42]
Test E disease control rating (Botrytis cinerea; 50 ppm): 94%
Test C disease control rating ([1]; 50 ppm): 93%
Test B disease control rating ([2]; 50 ppm): 99%
Test D disease control rating (Phakopsora pachyrhizi; 50 ppm): 73%
Test F disease control rating (Alternaria solani; 50 ppm): 93%
Test A disease control rating (Zymoseptoria tritici; 50 ppm): 100%

COc1ccc(Cl)c(-c2cn(C)c(=O)c(C)c2-c2ccc(F)cc2Cl)c1 [Compound 43, 4-(2-chloro-4-fluorophenyl)-5-(2-chloro-5-methoxyphenyl)-1,3-dimethyl-2(1H)-pyridinone]
pest or weed control at 50 ppm (Botrytis cinerea; 50 ppm): 98%
pest or weed control at 50 ppm ([1]; 50 ppm): 100%
pest or weed control at 50 ppm ([2]; 50 ppm): 100%
pest or weed control at 50 ppm (Phakopsora pachyrhizi; 50 ppm): 97%
pest or weed control at 50 ppm (Alternaria solani; 50 ppm): 100%
pest or weed control at 50 ppm (Zymoseptoria tritici; 50 ppm): 100%

Cn1c(Cl)c(-c2ccc(F)cc2Cl)c(-c2c(F)cccc2F)c(Cl)c1=O [Compound 44]
Test E disease control rating (Botrytis cinerea; 50 ppm): 40%
Test C disease control rating ([1]; 50 ppm): 79%
Test B disease control rating ([2]; 50 ppm): 93%
Test D disease control rating (Phakopsora pachyrhizi; 50 ppm): 96%
Test F disease control rating (Alternaria solani; 50 ppm): 0%
Test A disease control rating (Zymoseptoria tritici; 50 ppm): 98%

CCOn1cc(-c2cc(OC)cc(OC)c2)c(-c2ccc(F)cc2Cl)c(Cl)c1=O [Compound 45]
Test E disease control rating (Botrytis cinerea; 250 ppm): 97%
Test C disease control rating ([1]; 250 ppm): 72%
Test B disease control rating ([2]; 250 ppm): 91%
Test D disease control rating (Phakopsora pachyrhizi; 250 ppm): 0%
Test F disease control rating (Alternaria solani; 250 ppm): 0%
Test A disease control rating (Zymoseptoria tritici; 250 ppm): 100%

CCOn1cc(-c2cc(OC)cc(OC)c2Cl)c(-c2ccc(F)cc2Cl)c(Cl)c1=O [Compound 46]
Test E disease control rating (Botrytis cinerea; 250 ppm): 88%
Test C disease control rating ([1]; 250 ppm): 92%
Test B disease control rating ([2]; 250 ppm): 100%
Test D disease control rating (Phakopsora pachyrhizi; 250 ppm): 99%
Test F disease control rating (Alternaria solani; 250 ppm): 47%
Test A disease control rating (Zymoseptoria tritici; 250 ppm): 99%
